For series [1] the following is noted: six weeks at −20° C. (closed) and 40° C./75% RH (open and closed). On the procedure:
At specific intervals, the entire contents of a representative vial was analyzed by the following HPLC method: […]

The conditions of series [2]: DSC trace, 10° C./min. The protocol: Differential scanning calorimetry (DSC) was performed using a TA Instruments Model Q-10 module with a Thermal Analyst controller. Data were collected and analyzed using TA Instruments Thermal Solutions software. A sample of about 1-4 mg was accurately weighed into an aluminum pan with lid. The sample was evaluated using a linear heating ramp of 10° C./min from ambient temperature to approximately 300° C. The DSC cell was purged with dry nitrogen during use.

The conditions of series [3]: pH 5. The protocol:
A solution was prepared with 0.5 mg/mL freebase equivalents (using a crystalline diphosphate salt prepared as described in Example 3) in 10 mM citrate buffered normal saline, pH 5. […] Less than 0.5% degradation was observed after storage for one month at 40° C./75% RH.

For series [4] the following is noted: DMS trace.
Experimental: A dynamic moisture sorption (DMS) assessment (also known as a moisture sorption-desorption profile) was performed using a VTI atmospheric microbalance, SGA-100 system (VTI Corp., Hialeah, Fla. 33016). A sample size of approximately 10 mg was used and the humidity was set at the ambient value at the start of the analysis. A typical DMS analysis consisted of three scans: ambient to 2% relative humidity (RH), 2% RH to 90% RH, 90% RH to 5% RH at a scan rate of 5% RH/step. The mass was measured every two minutes and the RH was changed to the next value (+/−5% RH) when the mass of the sample was stable to within 0.01% for 5 consecutive points.

The values that follow come from patent US11390603B2, “Crystalline forms of a biphenyl compound” (THERAVANCE BIOPHARMA R&D IP, LLC, priority 2005, dated 2022).

Some results are limits rather than exact numbers.

As for `CN(CCN1CCC(OC(=O)Nc2ccccc2-c2ccccc2)CC1)C(=O)c1ccc(CN2CCC(C(N)=O)CC2)cc1.O=P(O)(O)O.O=P(O)(O)O` [Example 3, Crystalline Diphosphate Salt of Biphenyl-2-ylcarbamic Acid 1-(2-{[4-(4-Carbamoylpiperidin-1-ylmethyl)benzoyl]methylamino}ethyl)piperidin-4-yl Ester], in series [1], the “solid state stability: change in chemical purity” value is reported as “no detectable change in chemical purity”. In series [2], the “temperature below which no thermal decomposition occurs” value is at least 150 °C. The “degradation of solution after storage” value in series [3] (0.5 mg/mL freebase equivalents in 10 mM citrate buffered normal saline, one month at 40° C./75% RH) is listed as “Less than 0.5%”. In series [3] (10 mM citrate buffered normal saline), the “solubility of the crystalline salt” value is given as “greater than 40 mg/mL of freebase equivalent”. In series [4], the “sorption/desorption profile and hygroscopicity” value was “reversible sorption/desorption profile with low hygroscopicity”; the “weight gain when exposed to 2-90% RH” value came out at 3.3%; the “weight gain in the humidity range of 40-75% RH” value (“weight gain … of 40-75% RH” below) came out at 0.6%.
For `CN(CCN1CCC(OC(=O)Nc2ccccc2-c2ccccc2)CC1)C(=O)c1ccc(CN2CCC(C(N)=O)CC2)cc1.O=S(=O)(O)O` [Example 5, Crystalline Monosulfate Salt of Biphenyl-2-ylcarbamic Acid 1-(2-{[4-(4-Carbamoylpiperidin-1-ylmethyl)benzoyl]methylamino}ethyl)piperidin-4-yl Ester], in series [4], the “sorption/desorption profile and hygroscopicity” value is recorded as “reversible sorption/desorption profile with low hygroscopicity”; the “weight gain when exposed to 2-90% RH” value amounted to 10%; the “weight gain … of 40-75% RH” value was 1.8%.
As for `CN(CCN1CCC(OC(=O)Nc2ccccc2-c2ccccc2)CC1)C(=O)c1ccc(CN2CCC(C(N)=O)CC2)cc1.O=C(O)C(=O)O.O=C(O)C(=O)O` [Example 7, Crystalline Dioxalate Salt of Biphenyl-2-ylcarbamic Acid 1-(2-{[4-(4-Carbamoylpiperidin-1-ylmethyl)benzoyl]methylamino}ethyl)piperidin-4-yl Ester], in series [4], the “sorption/desorption profile and hygroscopicity” value is given as “reversible sorption/desorption profile with low hygroscopicity”; the “weight gain when exposed to 2-90% RH” value is recorded as 5.3%; the “weight gain … of 40-75% RH” value is on record as 1.1%.
For `CN(CCN1CCC(OC(=O)Nc2ccccc2-c2ccccc2)CC1)C(=O)c1ccc(CN2CCC(C(N)=O)CC2)cc1` [Example 10, Crystalline Freebase Biphenyl-2-ylcarbamic Acid 1-(2-{[4-(4-Carbamoylpiperidin-1-ylmethyl)benzoyl]methylamino}ethyl)piperidin-4-yl Ester (Form I)], the “temperature below which no thermal decomposition occurs” value in series [2] was at least 80 °C. For the same compound, in series [4], the “sorption/desorption profile and hygroscopicity” value is listed as “reversible sorption/desorption profile with low hygroscopicity”; the “weight gain when exposed to 2-90% RH” value is 10%; the “weight gain … of 40-75% RH” value worked out at 1.2%.
Taken in the same sequence, the figures for `CN(CCN1CCC(OC(=O)Nc2ccccc2-c2ccccc2)CC1)C(=O)c1ccc(CN2CCC(C(N)=O)CC2)cc1` [Example 11, Crystalline Freebase Biphenyl-2-ylcarbamic Acid 1-(2-{[4-(4-Carbamoylpiperidin-1-ylmethyl)benzoyl]methylamino}ethyl)piperidin-4-yl Ester (Form II)] were at least 75 °C, “reversible sorption/desorption profile with low hygroscopicity”, 9% and 1.3%.
